ChEMBL document CHEMBL1130742, “Inhibition of thermolysin with nitrone-bearing substrate analogs: a new type of thermolysin inhibitors” (Bioorg Med Chem Lett, 1998)

Target: T1, Thermolysin (Bacillus thermoproteolyticus, UniProt P00800)
T1 sequence (P00800 whole entry): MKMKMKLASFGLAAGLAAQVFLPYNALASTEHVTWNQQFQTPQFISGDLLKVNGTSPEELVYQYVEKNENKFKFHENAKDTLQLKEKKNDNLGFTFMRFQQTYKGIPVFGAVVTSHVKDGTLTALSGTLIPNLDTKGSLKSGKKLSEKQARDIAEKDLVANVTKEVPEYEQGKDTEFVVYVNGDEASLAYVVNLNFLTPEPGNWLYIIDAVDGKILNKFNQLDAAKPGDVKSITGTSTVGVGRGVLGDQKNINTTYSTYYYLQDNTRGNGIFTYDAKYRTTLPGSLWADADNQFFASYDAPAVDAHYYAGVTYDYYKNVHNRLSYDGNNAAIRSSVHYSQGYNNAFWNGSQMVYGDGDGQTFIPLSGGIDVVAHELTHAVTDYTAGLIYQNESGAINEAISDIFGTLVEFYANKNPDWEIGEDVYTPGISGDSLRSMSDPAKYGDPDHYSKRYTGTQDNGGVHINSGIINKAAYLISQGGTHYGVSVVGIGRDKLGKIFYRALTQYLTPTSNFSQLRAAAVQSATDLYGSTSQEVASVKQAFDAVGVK
Assay: Inhibitory activity against thermolysin using 2-furylacryloyl-Gly-Leu-NH2 as substrate at pH 7.2

Q: How did the Ki turn out when COC(=O)C(Cc1ccccc1)/[N+]([O-])=C/c1ccccc1 (stereo not drawn) was run?
A: Its Ki is 1910 µM.

Q: With NC(=O)C(/C=[N+](\[O-])Cc1ccccc1)Cc1ccccc1 (stereo not drawn) as the compound, how does the Ki read?
A: Its Ki is 40 µM.

Q: NC(=O)C(Cc1ccccc1)/[N+]([O-])=C/c1ccccc1 (stereo not drawn) was tested. Which Ki did it give?
A: The Ki was 774 µM.

Q: With COC(=O)C(Cc1ccccc1)C/[N+]([O-])=C/c1ccccc1 (stereo not drawn) as the compound, how does the Ki read?
A: Its Ki is 244 µM.

Q: With O=CN(O)CC(Cc1ccccc1)C(=O)NCC(=O)O (stereo not drawn) as the compound, how does the Ki read?
A: Its Ki is 34 µM.

Q: With O=C(O)CNC(=O)C(CC(=O)O)Cc1ccccc1 (stereo not drawn) as the compound, how does the Ki read?
A: The Ki was 340 µM.

Q: O=C(O)CNC(=O)C(/C=[N+](\[O-])Cc1ccccc1)Cc1ccccc1 (stereo not drawn) was tested. Which Ki did it give?
A: The Ki was 54 µM.

Q: How did the Ki turn out when COC(=O)C(/C=[N+](\[O-])Cc1ccccc1)Cc1ccccc1 (stereo not drawn) was run?
A: The Ki was 82 µM.
